# Assay results published in PubChem BioAssay (NCI).
# Values joined by “and” are separate entries in the source; they are usually repeats but may differ in a detail not shown here. Identical values can stand only once.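 In this assay, cells in 96-well plates receive the compound at five concentrations for 48 hours. Endpoints are linearly interpolated between the surrounding concentrations. GI50 = concentration required for 50% inhibition of growth. At the TGI there is no net growth.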 Where a SMILES comes first, the peptide text is derived from it. [ ]: non-standard residue; d: D form. The star is where a group is joined. Phe(4-NO2) = N[CH](Cc1ccc([N+](=O)[O-])cc1)C(=O)O; Boc = CC(C)(C)OC(=O)*; OBn = c1ccc(CO*)cc1
# Experiments:
# Test in all cases: growth of human tumour cells (NCI), 48 h
# [1] = system: SNB-19 CNS
# [2] = system: SK-OV-3 ovarian
# [3] = system: MOLT-4 leukemia
# [4] = system: OVCAR-8 ovarian
# [5] = system: KM12 colon
# [6] = system: A549 NSCLC
# [7] = system: ACHN renal
# [8] = system: NCI-H460 lung
# [9] = system: HOP-92 NSCLC
# [10] = system: NCI-H226 lung
Compound,TGI [1] [µM],TGI [2] [µM],TGI [3] [µM],TGI [4] [µM],TGI [5] [µM],TGI [6] [µM],TGI [7] [µM],TGI [8],TGI [9],TGI [10] [µM],GI50 [2] [µM],GI50 [3] [µM],GI50 [4] [µM],GI50 [5] [µM],GI50 [6] [µM],GI50 [8] [µM],GI50 [9] [µM],GI50 [1] [µM],GI50 [7] [µM],GI50 [10] [µM]
CCCCCc1cc(OC(=O)c2c(O)cc(OC)cc2CCCCC)cc(O)c1C(=O)O,25.5,31.5,60,36.3,34,35.6,35.9,31.3 µM,31 µM,,,,,,,,,,,
CCC(C)[C@H](NC(=O)N[C@H](C)c1ccccc1)C(=O)OC (stereo partly specified),> 100,> 100,> 100,> 100,> 100,> 100,> 100,> 100 µM,> 100 µM,> 100,,,,,,,,,,
COc1cc(-c2nc3cc(F)ccc3s2)ccc1O,> 100,> 100,> 100,> 100,> 100,> 100,> 100,> 100 µM,,> 100,,,,,,,,,,
CC(C)(C)OC(=O)n1cc(C2CNC(=O)C23CCC(=O)N3Cc2ccccc2)c2ccccc21 (stereo unspecified),> 100,58.3,> 100,,78.3,40.4,,47.6 µM,26.7 µM,41.4,,,,,,,,,,
CC(C)C[C@H](NC(=O)[C@H](Cc1cccc2ccccc12)NC(=O)N1CCOCC1)B(O)O,> 100,> 100,,0.0626,0.00376,0.267,> 100,0.0542 µM and 0.0423 µM,0.00322 µM and < 0.0122 µM,0.00049,0.226,0.000339,0.0113,0.00149,0.00609,0.0151,0.000654,,,
COc1ccc2[nH]c3c(c2c1)CCN(C)CC3,> 100,> 100,> 100,> 100,> 100,> 100,> 100,> 100 µM,> 100 µM,,,,,,,,,,,
COC(=O)CCC(NC(=O)OC(C)(C)C)C(=O)NC(Cc1ccc([N+](=O)[O-])cc1)C(=O)NCC(=O)OCc1ccccc1 (stereo unspecified) (Boc-Glu(OMe)-[Phe(4-NO2)]-Gly-OBn; configuration not given here),> 100,> 100,> 100,> 100,> 100,> 100,> 100,> 100 µM,> 95.1 µM,> 100,,,,,,,,,,
O=C(CSc1nc2ccccc2[nH]1)Nc1ccc(-c2nc3ccccc3s2)c(Cl)c1,65.8,12,> 100,> 100,8.1,> 100,57.4,> 100 µM,,,2.72,> 100,3.35,2.67,3.25,3.47,,5.44,4.52,
Cc1cc2c(cc1Cl)Sc1nnc(Nc3ccccc3)n1S2(=O)=O,,,13.5,20.8,57.5,32.7,30.3,33.2 µM,28.8 µM,10.7,,,,,,,,,,
CC(=O)c1ccc(N=Nc2ccc3nonc3c2N)cc1,> 100,> 100,> 100,> 100,> 100,> 100,> 100,> 100 µM,> 100 µM,> 100,,,,,,,,,,
Cc1ccc(S(=O)(=O)N/C(=C\C=C\c2ccccc2)C(=O)C(C)(C)C)cc1,> 100,> 100,> 100,> 100,> 100,> 100,> 100,> 100 µM,71.9 µM,> 100,,,,,,,,,,
CC(=O)OC[C@H]1O[C@@H](O[C@H]2[C@H](OC(C)=O)C=CO[C@@H]2COC(C)=O)C(OC(C)=O)[C@H]2OC(C)(C)O[C@H]21 (stereo partly specified),> 100,> 100,> 100,> 100,> 100,> 100,> 100,> 100 µM,> 100 µM,> 100,,,,,,,,,,
Cn1ccnc1Sc1ccc(/C=N/NC(=O)c2ccccc2O)cc1[N+](=O)[O-],> 100,> 100,13.3,> 100,> 100,> 100,> 100,> 100 µM,> 100 µM,> 100,,,,,,,,,,
CCCCOC(=O)CNC(=O)OCCCCC#CC#CCCCCOC(=O)NCC(=O)OCCCC,> 100,> 100,> 100,> 100,> 100,> 100,> 100,> 100 µM,,> 100,,,,,,,,,,
COc1cccc(N2C(=O)C3c4[nH]c5ccccc5c4C4c5ccccc5CCC4C3C2=O)c1 (stereo unspecified),> 10,> 7.28,> 10,9.9,> 10,> 10,> 10,> 10 µM,> 10 µM,> 7.52,,,,,,,,,,
OC(C1CCC=NN1C(O)(C(F)(F)F)C(F)(F)F)(C(F)(F)F)C(F)(F)F (stereo unspecified),> 10,> 10,> 10,> 10,> 10,> 10,> 10,> 10 µM,> 10 µM,> 10,,,,,,,,,,
CC(=O)O/C=C\OC1CCCC1(c1ccccc1)c1ccccc1 (stereo unspecified),26.3,27.6,9.07,7.3,12.9,43.8,4.36,26.6 µM,3.89 µM,24.8,,,,,,,,,,
CCOC(=O)/C(O)=C1\C(=O)N(C)C(=O)C1c1ccc(OC)c(OC)c1 (stereo unspecified),> 100,> 100,> 100,> 100,> 100,> 100,,> 100 µM,> 100 µM,> 100,,,,,,,,,,
COc1ccc2c(c1)O[C@@H]1C(O)Oc3cc(OC)c(OC)cc3[C@]1(O)C2=O (stereo partly specified),> 100,> 100,> 100,> 100,> 100,> 100,> 100,> 100 µM,,83.9,,,,,,,,,,
C=CC(=O)N1C/C(=C\c2ccc(N(C)C)cc2)C(=O)/C(=C/c2ccc(N(C)C)cc2)C1,> 100,,> 100,> 100,> 100,> 100,> 100,> 100 µM,> 100 µM,> 100,,,,,,,,,,
CCN1CC(C)Cn2c(=O)[nH]c3cc(Br)cc1c32 (stereo unspecified),> 100,> 100,81.9,> 100,> 100,> 100,> 100,> 100 µM,,> 100,,,,,,,,,,

Compound,TGI [1] [µM],TGI [2] [µM],TGI [3] [µM],TGI [4] [µM],TGI [5] [µM],TGI [6] [µM],TGI [7] [µM],TGI [8],TGI [9],TGI [10] [µM],GI50 [2] [µM],GI50 [3] [µM],GI50 [4] [µM],GI50 [5] [µM],GI50 [6] [µM],GI50 [8] [µM],GI50 [9] [µM],GI50 [1] [µM],GI50 [7] [µM],GI50 [10] [µM]
Oc1ccc(Cl)cc1C1=N/C(=N\CN2CCN(C/N=C3/N=C(c4cc(Cl)ccc4O)CC(c4ccccc4)N3)CC2)NC(c2ccccc2)C1 (stereo unspecified),> 100,> 100,,> 100,> 100,> 100,75.6,> 100 µM,> 100 µM,> 100,,,,,,,,,,
CN(C)C(=S)N/N=C\C=N/NC(=S)N(C)C,> 100,> 100,,> 100,> 100,> 100,,> 100 µM,> 100 µM,> 81.9,,,,,,,,,,
S=C1c2ccccc2NC(=NC2CCCC2)C2CSCN12 (stereo unspecified),> 100,> 100,> 100,> 100,> 100,> 100,> 100,> 100 µM,,> 100,,,,,,,,,,
COc1cccc2cc(C)c(C(=O)c3ccccc3)nc12,> 100,,> 100,> 100,> 100,> 100,> 100,,,> 100,,,,,,,,,,
N#CC1=C2Sc3ccccc3N2[C@H](c2ccccc2)[C@H]2COC(=O)[C@@H]12,> 100,> 100,> 100,> 100,> 100,> 100,> 100,,> 100 µM,> 100,,,,,,,,,,
CC(=O)Oc1ccc(/C=C/C(=O)O[C@@H](C)[C@H](C)OC(=O)/C=C/c2ccc(OC(C)=O)c(OC(C)=O)c2)cc1OC(C)=O,> 100,77.2,> 100,53.6,78.8,> 100,> 100,> 100 µM,58.2 µM,,,,,,,,,,,
CCC1C(=O)C[C@H]2[C@@H]3C(O)CC4=CC(=O)CC[C@]4(C)[C@H]3CC[C@]12C (stereo partly specified),> 50,> 50,> 50,> 50,> 50,> 50,> 50,> 50 µM,> 50 µM,,,,,,,,,,,
Brc1ccc(N=NN2CCCCC2)cc1,> 100,> 100,46.2,> 100,> 100,,> 100,> 100 µM,> 100 µM,> 100,,,,,,,,,,
c1ccc2c(-c3cnc(-c4c[nH]c5ccccc45)cn3)c[nH]c2c1,> 100,> 100,,> 100,> 100,> 100,> 100,> 100 µM,> 100 µM,,,,,,,,,,,
CC(=O)C(C(C)=O)=C1CCCC(O)O1 (stereo unspecified),> 100,> 100,> 100,> 100,> 100,> 100,> 100,> 100 µM,,> 100,,,,,,,,,,
Cc1ccc([N+](=O)[O-])cc1S(=O)(=O)Nc1ccc(C2=NN(c3ccc([N+](=O)[O-])cc3[N+](=O)[O-])C(c3ccccc3)C2)cc1 (stereo unspecified),33,65.8,70.8,40.2,44.8,96.6,40.3,,35.9 µM,35.6,,,,,,,,,,
COc1ccc2c3c1OC1CC(O)C=CC31CCN(C)C2 (stereo unspecified),> 150,> 150,> 150,> 15,> 150,> 150,,> 150 µM,> 150 µM,> 150,,,,,,,,,,
CCOC(=O)/C(=C\NCC(O)c1ccccc1)c1nc2ccccc2[nH]1 (stereo unspecified),> 100,> 100,34.3,69.9,67.9,> 100,28.8,50.5 µM,65.5 µM,,,,,,,,,,,
COc1cc(OC)c2c(O)cc(CC(C)O)cc2c1 (stereo unspecified),> 100,> 100,> 100,> 100,> 100,> 100,> 100,> 100 µM,> 100 µM,,,,,,,,,,,
COC1C(O)CC(OC2C(C)OC(Oc3cc(O)c4c(O)c5c(cc4c3)C[C@@H]([C@H](OC)C(=O)[C@@H](O)[C@@H](C)O)[C@H](OC3CC(OC4CC(OC6CC(C)(O)C(O)C(C)O6)C(O)C(C)O4)C(O)C(C)O3)C5=O)CC2OC(C)=O)OC1C (stereo partly specified),> 100,> 100,> 100,> 100,> 100,> 100,> 100,> 100 µM,,> 100,,,,,,,,,,
Cc1cn(C2CC(n3cc(Cn4cc(F)c(=O)[nH]c4=O)nn3)C(CO)O2)c(=O)[nH]c1=O (stereo unspecified),> 100,> 100,> 100,> 100,> 100,> 100,> 100,,> 100 µM,> 100,,,,,,,,,,
Cc1ccc(N=Nc2c(C)nn(C(=O)CC(=O)Nc3ccccc3)c2C)cc1C,,> 100,> 100,> 100,> 100,> 100,> 100,> 100 µM,> 100 µM,> 100,,,,,,,,,,
CSc1c(C(=O)Nc2ccccc2)c(N)nn1-c1ccccc1,> 100,> 100,> 100,> 100,> 100,> 100,,> 100 µM,,> 100,,,,,,,,,,
COC(=O)CCCc1ccc2c(c1)CC1(C2)Cc2cc3c(cc2C1)CCCC3,,> 100,38.9,> 100,80.6,67.7,> 100,,85.1 µM,> 100,,,,,,,,,,
Cc1ccc2[nH]cc(-c3nc(-c4c[nH]c5ncccc45)cs3)c2c1,> 100,> 100,> 100,> 100,> 100,> 100,> 100,,,> 100,> 100,> 100,> 100,> 100,> 100,,,> 100,> 100,> 100
